# From patent publication US11596639B2, “Substituted indole Mcl-1 inhibitors” (Vanderbilt University, priority 2016, dated 2023)
# pKi: −log10 of the molar value.
# What was measured:
# [1] = system: H929 human cancer cell lines; assay: Cellular viability / proliferation (Cell TiterGlo, 72 h); assay type: cell-based; details: Homo sapiens, NCI-H929, 72 h, read-out: GI50 on cellular proliferation of H929 human cancer cell lines, H929 cells, 72 h, Cell TiterGlo, 10% FBS
# Summary of the method: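 Compounds were added as 2-fold serial dilutions from 50 μM (final DMSO <1%) to H929 cells seeded 1,000 per well in 10% FBS medium one day earlier.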
# Mcl-1 = Mcl-1 (Homo sapiens (Human), UniProt Q07820); assay: TR-FRET binding assay, FITC-Bak peptide and MBP-tagged Mcl-1; details: read-out: Ki for Inhibition of Mcl-1 by TR-FRET assay
# Mcl-1, sequence (Q07820 172-327): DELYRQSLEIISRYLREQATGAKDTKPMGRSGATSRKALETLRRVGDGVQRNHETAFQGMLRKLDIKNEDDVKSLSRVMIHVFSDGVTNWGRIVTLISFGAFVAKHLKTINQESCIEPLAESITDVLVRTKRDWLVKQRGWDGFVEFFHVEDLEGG
# Experimental: Compounds are diluted in DMSO in a 16-point, semilog serial dilution scheme. […] The plate was mixed and incubated for 3 hours at room temperature. […] TR-FRET signal is plotted and IC50 and Ki values are calculated in the same manner as the fluorescence polarization anisotropy based competition assays.
SMILES,GI50 [1] [nM],pKi (Mcl-1)
"C=Cc1cccc(Cn2c(C(=O)O)cc3cc(C)cc(N4C[C@@H](C)n5c(c(CCCOc6cc(C)c(Cl)c(C)c6)c6ccc(Cl)c(-c7c(C)nn(C)c7C)c65)C4=O)c32)n1 [Example 517, (R)-7-(7-Chloro-10-(3-(4-chloro-3,5-dimethylphenoxy)propyl)-4-methyl-1-oxo-6-(1,3,5-trimethyl-1H-pyrazol-4-yl)-3,4-dihydropyrazino[1,2-a]indol-2(1H)-yl)-5-methyl-1-((6-vinylpyridin-2-yl)methyl)-1H-indole-2-carboxylic acid]",760,9.44
"Cc1cc(OCCCc2c3n(c4c(-c5c(C)ncnc5C)c(Cl)ccc24)[C@H](C)CN(c2cn(C)c4ncc(C(=O)O)cc24)C3=O)cc(C)c1Cl [Example 636, (R)-3-(7-chloro-10-(3-(4-chloro-3,5-dimethylphenoxy)propyl)-6-(4,6-dimethylpyrimidin-5-yl)-4-methyl-1-oxo-3,4-dihydropyrazino[1,2-a]indol-2(1H)-yl)-1-methyl-1H-pyrrolo[2,3-b]pyridine-5-carboxylic acid]",980,9.30
"COc1cc(N2C[C@@H](C)n3c(c(CCCOc4cc(C)c(Cl)c(C)c4)c4ccc(Cl)c(-c5c(C)nn(C)c5C)c43)C2=O)c2c(c1)c(C(=O)O)cn2Cc1ccccn1 [Example 605, (R)-7-(7-chloro-10-(3-(4-chloro-3,5-dimethylphenoxy)propyl)-4-methyl-1-oxo-6-(1,3,5-trimethyl-1H-pyrazol-4-yl)-3,4-dihydropyrazino[1,2-a]indol-2(1H)-yl)-5-methoxy-1-(pyridin-2-ylmethyl)-1H-indole-3-carboxylic acid]",490,9.35
"Cc1cc(N2C[C@@H](C)n3c(c(CCCOc4cc(C)c(Cl)c(C)c4)c4ccc(Cl)c(-c5c(C)nn(C)c5C)c43)C2=O)c2c(c1)cc(C(=O)O)n2Cc1cc(N2CCNCC2)ccn1 [Example 553, (R)-7-(7-chloro-10-(3-(4-chloro-3,5-dimethylphenoxy)propyl)-4-methyl-1-oxo-6-(1,3,5-trimethyl-1H-pyrazol-4-yl)-3,4-dihydropyrazino[1,2-a]indol-2(1H)-yl)-5-methyl-1-((4-(piperazin-1-yl)pyridin-2-yl)methyl)-1H-indole-2-carboxylic acid]",2800,> 9.70
"COCCn1cc(C(=O)O)c2cc(OCCN3CCN(C)CC3)cc(N3C[C@@H](C)n4c(c(CCCOc5cc(C)c(Cl)c(C)c5)c5ccc(Cl)c(-c6c(C)nn(C)c6C)c54)C3=O)c21 [Example 676, (R)-7-(7-chloro-10-(3-(4-chloro-3,5-dimethylphenoxy)propyl)-4-methyl-1-oxo-6-(1,3,5-trimethyl-1H-pyrazol-4-yl)-3,4-dihydropyrazino[1,2-a]indol-2(1H)-yl)-1-(2-methoxyethyl)-5-(2-(4-methylpiperazin-1-yl)ethoxy)-1H-indole-3-carboxylic acid]",1100,9.25
"Cc1cc(OCCCc2c3n(c4c(-c5c(C)nn(C)c5C)c(Cl)ccc24)[C@H](C)CN(c2cn(C)c4ccc(-n5ncnn5)cc24)C3=O)cc(C)c1Cl [Example 689, (R)-7-Chloro-10-(3-(4-chloro-3,5-dimethylphenoxy)propyl)-4-methyl-2-(1-methyl-5-(2H-tetrazol-2-yl)-1H-indol-3-yl)-6-(1,3,5-trimethyl-1H-pyrazol-4-yl)-3,4-dihydropyrazino[1,2-a]indol-1(2H)-one]",1700,8.68
"Cc1cc(N2C[C@@H](C)n3c(c(CCCOc4cc(C)c(Cl)c(C)c4)c4ccc(Cl)c(-c5c(C)nn(C)c5C)c43)C2=O)c2c(c1)cc(C(=O)O)n2Cc1cccc(C#N)n1 [Example 557, (R)-7-(7-chloro-10-(3-(4-chloro-3,5-dimethylphenoxy)propyl)-4-methyl-1-oxo-6-(1,3,5-trimethyl-1H-pyrazol-4-yl)-3,4-dihydropyrazino[1,2-a]indol-2(1H)-yl)-1-((6-cyanopyridin-2-yl)methyl)-5-methyl-1H-indole-2-carboxylic acid]",820,> 9.70
"Cc1cc(OCCCc2c3n(c4c(-c5c(C)nn(C)c5C)c(Cl)ccc24)[C@H](C)CN(c2cn(C)c4ccc(C(=O)O)nc24)C3=O)cc(C)c1Cl [Example 489, (R)-3-(7-Chloro-10-(3-(4-chloro-3,5-dimethylphenoxy)propyl)-4-methyl-1-oxo-6-(1,3,5-trimethyl-1H-pyrazol-4-yl)-3,4-dihydropyrazino[1,2-a]indol-2(1H)-yl)-1-methyl-1H-pyrrolo[3,2-b]pyridine-5-carboxylic acid]",< 200,> 9.70
"Cc1cc(OCCCc2c3n(c4c(-c5c(C)ncnc5C)c(Cl)ccc24)[C@H](C)CN(c2cn(C)c4cnc(C(=O)O)cc24)C3=O)cc(C)c1Cl [Example 640, (R)-3-(7-chloro-10-(3-(4-chloro-3,5-dimethylphenoxy)propyl)-6-(4,6-dimethylpyrimidin-5-yl)-4-methyl-1-oxo-3,4-dihydropyrazino[1,2-a]indol-2(1H)-yl)-1-methyl-1H-pyrrolo[2,3-c]pyridine-5-carboxylic acid]",8100,> 9.70
"Cc1ccnc(Cn2cc(C(=O)O)c3cccc(N4C[C@@H](C)n5c(c(CCCOc6cc(C)c(Cl)c(C)c6)c6ccc(Cl)c(-c7c(C)nn(C)c7C)c65)C4=O)c32)c1 [Example 480, (R)-7-(7-Chloro-10-(3-(4-chloro-3,5-dimethylphenoxy)propyl)-4-methyl-1-oxo-6-(1,3,5-trimethyl-1H-pyrazol-4-yl)-3,4-dihydropyrazino[1,2-a]indol-2(1H)-yl)-1-((4-methylpyridin-2-yl)methyl)-1H-indole-3-carboxylic acid]",250,> 9.70
"COc1ccc(N2C[C@@H](C)n3c(c(CCCOc4cc(C)c(Cl)c(C)c4)c4ccc(Cl)c(-c5c(C)nc(CN(C)C)nc5C)c43)C2=O)c2c1cc(C(=O)O)n2C [Example 483, (R)-7-(7-Chloro-10-(3-(4-chloro-3,5-dimethylphenoxy)propyl)-6-(2-((dimethylamino)methyl)-4,6-dimethylpyrimidin-5-yl)-4-methyl-1-oxo-3,4-dihydropyrazino[1,2-a]indol-2(1H)-yl)-4-methoxy-1-methyl-1H-indole-2-carboxylic acid]",280,> 9.70
"COCCn1cc(N2C[C@@H](C)n3c(c(CCCOc4cc(C)c(Cl)c(C)c4)c4ccc(Cl)c(-c5c(C)nn(C)c5C)c43)C2=O)c2cc(-c3ncccn3)ccc21 [Example 548, (R)-7-Chloro-10-(3-(4-chloro-3,5-dimethylphenoxy)propyl)-2-(1-(2-methoxyethyl)-5-(pyrimidin-2-yl)-1H-indol-3-yl)-4-methyl-6-(1,3,5-trimethyl-1H-pyrazol-4-yl)-3,4-dihydropyrazino[1,2-a]indol-1(2H)-one]",610,9.03
"Cc1cc(OCCCc2c3n(c4c(-c5c(C)nn(C)c5C)c(Cl)ccc24)[C@H](C)CN(c2cc(NCCN4CCCC4)cc4c(C(=O)O)cn(C)c24)C3=O)cc(C)c1Cl [Example 486, (R)-7-(7-Chloro-10-(3-(4-chloro-3,5-dimethylphenoxy)propyl)-4-methyl-1-oxo-6-(1,3,5-trimethyl-1H-pyrazol-4-yl)-3,4-dihydropyrazino[1,2-a]indol-2(1H)-yl)-1-methyl-5-((2-(pyrrolidin-1-yl)ethyl)amino)-1H-indole-3-carboxylic acid]",2900,8.85
"Cc1cc(OCCCc2c3n(c4c(-c5c(C)nn(C)c5C)c(Cl)ccc24)[C@H](C)CN(c2cn(CC(=O)N4CCOCC4)c4ccc(-c5ncccn5)cc24)C3=O)cc(C)c1Cl [Example 531, (R)-7-Chloro-10-(3-(4-chloro-3,5-dimethylphenoxy)propyl)-4-methyl-2-(1-(2-morpholino-2-oxoethyl)-5-(pyrimidin-2-yl)-1H-indol-3-yl)-6-(1,3,5-trimethyl-1H-pyrazol-4-yl)-3,4-dihydropyrazino[1,2-a]indol-1(2H)-one]",380,9.32
"COCCn1cc(N2C[C@@H](C)n3c(c(CCCOc4cc(C)c(Cl)c(C)c4)c4ccc(Cl)c(-c5c(C)nn(C)c5C)c43)C2=O)c2cc(-c3ncn(CC4CN(C(C)=O)C4)n3)ccc21 [Example 618, (R)-2-(5-(1-((1-Acetylazetidin-3-yl)methyl)-1H-1,2,4-triazol-3-yl)-1-(2-methoxyethyl)-1H-indol-3-yl)-7-chloro-10-(3-(4-chloro-3,5-dimethylphenoxy)propyl)-4-methyl-6-(1,3,5-trimethyl-1H-pyrazol-4-yl)-3,4-dihydropyrazino[1,2-a]indol-1(2H)-one]",360,8.42
"Cc1cc(OCCCc2c3n(c4c(-c5c(C)nn(C)c5C)c(Cl)ccc24)[C@H](C)CN(c2cc(CCN4CCCCC4)cc4cc(C(=O)O)n(C)c24)C3=O)cc(C)c1Cl [Example 723, (R)-7-(7-chloro-10-(3-(4-chloro-3,5-dimethylphenoxy)propyl)-4-methyl-1-oxo-6-(1,3,5-trimethyl-1H-pyrazol-4-yl)-3,4-dihydropyrazino[1,2-a]indol-2(1H)-yl)-1-methyl-5-(2-(piperidin-1-yl)ethyl)-1H-indole-2-carboxylic acid]",< 200,> 9.70
"COc1ccc(N2C[C@@H](C)n3c(c(CCCOc4cc(C)c(Cl)c(C)c4)c4ccc(Cl)c(-c5c(C)n[nH]c5C)c43)C2=O)c2c1cc(C(=O)O)n2Cc1ccccn1 [Example 724, (R)-7-(7-chloro-10-(3-(4-chloro-3,5-dimethylphenoxy)propyl)-6-(3,5-dimethyl-1H-pyrazol-4-yl)-4-methyl-1-oxo-3,4-dihydropyrazino[1,2-a]indol-2(1H)-yl)-4-methoxy-1-(pyridin-2-ylmethyl)-1H-indole-2-carboxylic acid]",330,> 9.70
